Here are results for 14 compounds from US5436254A, “Carbostyril derivatives” (Otsuka Pharmaceutical Company, Ltd., priority 1989, dated 1995).

In the assay the target is V1 receptor (Rattus norvegicus, UniProt P30560). The assay can be described thus: biochemical. It counts as binding.
V1 receptor, sequence (P30560 whole entry): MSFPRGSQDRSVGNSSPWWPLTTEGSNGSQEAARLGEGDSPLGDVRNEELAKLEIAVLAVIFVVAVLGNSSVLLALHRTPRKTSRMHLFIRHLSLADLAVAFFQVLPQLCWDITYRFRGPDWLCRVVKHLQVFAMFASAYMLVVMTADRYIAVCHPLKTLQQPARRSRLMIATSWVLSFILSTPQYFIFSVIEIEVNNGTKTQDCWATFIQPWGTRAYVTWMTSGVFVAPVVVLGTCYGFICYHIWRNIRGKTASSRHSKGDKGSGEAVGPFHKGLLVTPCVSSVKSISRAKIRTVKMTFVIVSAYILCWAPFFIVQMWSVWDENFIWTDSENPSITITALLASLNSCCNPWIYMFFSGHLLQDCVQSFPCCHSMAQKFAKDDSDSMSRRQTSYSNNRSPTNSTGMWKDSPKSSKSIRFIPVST

Description: Experiment 1: V1 receptor binding assay
Using rat liver plasma membrane preparations prepared according to Ichihara's method [cf: Akira Ichihara, J. Bio. Chem., 258 9283 (1983)], the plasma membrane (50000 dpm, 2×10^-10 M) of [H]^3 -Arg-vasopressin and a test compound (100 ng, 10^-7 -10^-4 M) are incubated at 37° C. for 10 minutes in 100 mM Tris-HCl buffer pH: 8.0 (250 μl) containing 5 mM MgCl2, 1 mM EDTA and 0.1% BSA. After incubation, the mixture is filtered three times using the glass filter (GF/F) so as to separate the membrane preparation combining with vasopressin and then washed with the buffer (5 ml). This glass filter is taken out and mixed with liquid scintillation cocktail. The amount of [H]^3 -vasopressin combining with the membrane is measured by liquid scintillation counter and the rate of the inhibitory effect of the test compound is estimated according to the following equation. [formula] C^1 : The amount of [H]^3 -vasopressin combining with the membrane in the presence of the test compound (known amount).
C^0 : The amount of [H]^3 -vasopressin combining with the membrane in the absence of the test compound.
B^1 : The amount of [H]^3 -vasopressin combining with the membrane in the presence of the excess amount of vasopressin (10^-6 M).

As to `Cn1ccnc1S(=O)(=O)CCCCCOc1ccc(C(=O)N2CCC(N3C(=O)CCc4ccccc43)CC2)cc1` [Example 282, 1-{1-(4-[5-(1-Methyl-2-imidazolylsulfonyl)pentyloxy)benzoyl)-4-piperidinyl}-3,4-dihydrocarbostyril], the IC50 (commonly the concentration needed to halve the response being measured) turned out to be 75 nM. Compound `O=C(c1ccc(OCCCCCSc2ccncc2)cc1)N1CCC(N2C(=O)CCc3ccccc32)CC1` [Example 283, 1-{1-(4-[5-(4-Pyridylthio)pentyloxy]benzoyl)-4-piperidinyl}-3,4-dihydrocarbostyril] had an IC50 of 610 nM. Then `Nc1ccc(SCCCCCOc2ccc(C(=O)N3CCC(N4C(=O)CCc5ccccc54)CC3)cc2)cc1` [Example 284, 1-{1-(4-[5-(4-Aminophenylthio)pentyloxy]benzoyl)-4-piperidinyl}-3,4-dihydrocarbostyril], with 400 nM; and `O=C(c1ccc(OCCCCCS(=O)(=O)c2ccc([N+](=O)[O-])cc2)cc1)N1CCC(N2C(=O)CCc3ccccc32)CC1` [Example 285, 1-{1-(4-[5-(4-Nitrophenylsulfonyl)pentyloxy]benzoyl)-4-piperidinyl}-3,4-dihydrocarbostyril], with 230 nM; and `Nc1ccc(S(=O)(=O)CCCCCOc2ccc(C(=O)N3CCC(N4C(=O)CCc5ccccc54)CC3)cc2)cc1` [Example 286, 1-{1-(4-[5-(4-Aminophenylsulfonyl)pentyloxy]benzoyl)-4-piperidinyl}-3,4-dihydrocarbostyril], with 150 nM. With `O=C(c1ccc(OCCCCCS(=O)(=O)c2ccccn2)cc1)N1CCC(N2C(=O)CCc3ccccc32)CC1` [Example 287, 1-{1-(4-[5-(2-Pyridylsulfonyl)pentyloxy]benzoyl)-4-piperidinyl}-3,4-dihydrocarbostyril] the figure was 100 nM. Consider `O=C(c1ccc(OCCCCCS(=O)(=O)c2cc[n+]([O-])cc2)cc1)N1CCC(N2C(=O)CCc3ccccc32)CC1` [Example 288, 1-{1-(4-[5-(Pyridine-N-oxide-4-ylsulfonyl)pentyloxy]benzoyl)-4-piperidinyl}-3,4-dihydrocarbostyril], for which inhibition was half-maximal at 48 nM (IC50). Consider `CC(=O)Nc1ccc(S(=O)(=O)CCCCCOc2ccc(C(=O)N3CCC(N4C(=O)CCc5ccccc54)CC3)cc2)cc1` [Example 289, 1-{1-(4-[5-(4-Acetylaminophenylsulfonyl)pentyloxy]benzoyl)-4-piperidinyl}-3,4-dihydrocarbostyril], for which the IC50 was 100 nM. For the compound `O=C(c1ccc(OCCCCCN2CCCC2)cc1OCCCCCN1CCCC1)N1CCC(N2C(=O)CCc3ccccc32)CC1` [Example 291], the IC50 was found to be 98 nM. Compound `CCN(CC)CCCCCOc1ccc(C(=O)N2CCC(N3C(=O)CCc4ccccc43)CC2)c(OCCCCCN(CC)CC)c1` [Example 292, 1-{1-[2,4-Di(5-diethylaminopentyloxy]benzoyl)-4-piperidinyl}-3,4-dihydrocarbostyril] had an IC50 of 77 nM.

The compound `COc1cc(OCCCCC(=O)N2CCSCC2)ccc1C(=O)N1CCC(N2C(=O)CCc3ccccc32)CC1` [Example 293, 1-{1-[2-Methoxy-4-(4-thiomorpholinocarbonylbutyloxy)benzoyl]-4-piperidinyl}-3,4-dihydrocarbostyril] registered an IC50 of 220 nM.

In turn, `COc1cc(OCCCCC(N)=O)ccc1C(=O)N1CCC(N2C(=O)CCc3ccccc32)CC1` [Example 294, 1-{1-[2-Methoxy-4-(4-carbamoylbutoxy)benzoyl]-4-piperidinyl}-3,4-dihydrocarbostyril] showed an IC50 of 170 nM. As for `COc1cc(OCCCCC(=O)N2CC[S+]([O-])CC2)ccc1C(=O)N1CCC(N2C(=O)CCc3ccccc32)CC1` [Example 295, 1-{1-(2-Methoxy-4-[4-(4-oxothiomorpholino)carbonylbutyloxy)benzoyl]-4-piperidinyl}-3,4-dihydrocarbostyril], inhibition was half-maximal at 77 nM (IC50). Then `COc1cc(OCCCCC(=O)N2CCS(=O)(=O)CC2)ccc1C(=O)N1CCC(N2C(=O)CCc3ccccc32)CC1` [Example 296, 1-{1-(2-Methoxy-4-[4-(4,4-dioxothiomorpholino)carbonylbutyloxy]benzoyl]-4-piperidinyl}-3,4-dihydrocarbostyril], with 73 nM.
